Where two headings read alike, the source gives them in different places.
Tests used:
Format in all cases: biochemical
[1] = target: T1, JAK2 (Homo sapiens, UniProt O60674); test: JAK2 microfluidic kinase assay (Caliper EZ Reader II, FAM labeled peptide substrate); settings: (0.25 nM), 1 mM ATP
T1 construct: purchased Carna Biosciences
Description: (§1) Compounds were tested against JAK1, JAK2, JAK2V617F and TYK2.
(§2) Assay Formats: JAK activity was determined in the reaction buffer 50 mM HEPES, 0.01% Brij35, 10 mMMgCl2, 2 mMDTT by a microfluidic assay. The phosphorylation of a FAM labeled peptide substrate was monitored in the Caliper EZ Reader II (Perkin Elmer). The assay condition for each batch of enzyme (Carna Biosciences) was optimized to obtain 10% conversion rate of peptide substrate.
(§3) The test compounds were dissolved in DMSO to a stock concentration of 10 mM. 3-fold serially diluted compounds with top concentration of 5 μM were pre-incubated with JAK1, JAK2, JAK2V617F or TYK2 for 10 min at ambient temperature. The final DMSO concentration of assay mixture was 1%. FAM labeled peptide substrate (final concentration […]) and ATP (1 mM concentration) were sequentially added to initiate the kinase reaction at 28° C. The reaction was stopped by adding 50 mMEDTA. The reaction time for JAK1, JAK2, JAK2V617F and TYK2 was 120 min, 20 min, 30 min and 10 min, respectively.
(§4) The well in the test plate without enzyme was defined as 100% inhibition. And the well without compound but with equivalent DMSO was defined as no inhibition. The percent inhibition was calculated by the following formula. % Inhibition=(Conversionmax−Conversionsample)/(Conversionmax−Conversionmin)*100Conversionmax means the conversion rate in the positive well without addition of compound Conversionmin means the conversion rate in the well without addition of enzyme Conversionsample means the conversion rate of test compounds
(§5) The dose-response (percent inhibition) curve was plotted and IC50 values were determined by GraphPad software.

[2] = target: T2, TYK2 (Homo sapiens, UniProt P29597); test: TYK2 microfluidic kinase assay (Caliper EZ Reader II, FAM labeled peptide substrate); settings: (2.5 nM), 1 mM ATP; Table 2; read-out: IC50 TYK2 (2.5 nM) (1 mM ATP)
T2 construct: purchased Carna Biosciences
T2 sequence (P29597 whole entry): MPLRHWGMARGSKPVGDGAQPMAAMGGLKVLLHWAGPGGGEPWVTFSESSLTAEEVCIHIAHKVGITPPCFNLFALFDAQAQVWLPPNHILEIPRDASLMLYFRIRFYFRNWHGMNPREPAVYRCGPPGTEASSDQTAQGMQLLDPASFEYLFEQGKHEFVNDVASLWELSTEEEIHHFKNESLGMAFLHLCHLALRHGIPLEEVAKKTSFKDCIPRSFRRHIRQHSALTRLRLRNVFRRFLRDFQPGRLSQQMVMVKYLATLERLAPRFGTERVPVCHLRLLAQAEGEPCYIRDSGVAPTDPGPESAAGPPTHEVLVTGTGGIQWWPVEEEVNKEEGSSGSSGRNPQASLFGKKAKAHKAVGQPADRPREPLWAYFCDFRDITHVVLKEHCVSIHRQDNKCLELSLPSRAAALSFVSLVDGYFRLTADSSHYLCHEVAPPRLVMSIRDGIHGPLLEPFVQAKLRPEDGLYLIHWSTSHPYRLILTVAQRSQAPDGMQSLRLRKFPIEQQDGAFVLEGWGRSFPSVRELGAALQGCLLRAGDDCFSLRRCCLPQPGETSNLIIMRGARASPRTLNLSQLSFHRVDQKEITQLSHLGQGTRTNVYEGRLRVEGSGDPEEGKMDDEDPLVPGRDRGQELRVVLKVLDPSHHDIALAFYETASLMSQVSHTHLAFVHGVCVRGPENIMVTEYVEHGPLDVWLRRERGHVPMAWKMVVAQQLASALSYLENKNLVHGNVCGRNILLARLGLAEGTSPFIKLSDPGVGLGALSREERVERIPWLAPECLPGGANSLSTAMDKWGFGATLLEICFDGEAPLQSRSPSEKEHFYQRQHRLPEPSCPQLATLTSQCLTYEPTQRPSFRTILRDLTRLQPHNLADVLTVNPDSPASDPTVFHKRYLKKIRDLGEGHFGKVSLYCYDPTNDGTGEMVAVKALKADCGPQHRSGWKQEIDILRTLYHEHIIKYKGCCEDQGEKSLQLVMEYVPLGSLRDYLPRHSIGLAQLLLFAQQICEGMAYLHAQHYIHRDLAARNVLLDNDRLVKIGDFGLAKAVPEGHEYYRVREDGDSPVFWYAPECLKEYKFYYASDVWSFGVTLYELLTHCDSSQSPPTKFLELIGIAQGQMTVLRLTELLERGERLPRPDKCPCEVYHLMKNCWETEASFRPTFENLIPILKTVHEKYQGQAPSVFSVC
Description: as §1, §2, §3, §4, §5

[3] = target: T3, JAK2V617F (Homo sapiens, UniProt O60674, V617F); test: JAK2V617F microfluidic kinase assay (Caliper EZ Reader II, FAM labeled peptide substrate); settings: (2.5 nM), 1 mM ATP
T3 construct: purchased Carna Biosciences
T3 sequence (O60674 whole entry V617F): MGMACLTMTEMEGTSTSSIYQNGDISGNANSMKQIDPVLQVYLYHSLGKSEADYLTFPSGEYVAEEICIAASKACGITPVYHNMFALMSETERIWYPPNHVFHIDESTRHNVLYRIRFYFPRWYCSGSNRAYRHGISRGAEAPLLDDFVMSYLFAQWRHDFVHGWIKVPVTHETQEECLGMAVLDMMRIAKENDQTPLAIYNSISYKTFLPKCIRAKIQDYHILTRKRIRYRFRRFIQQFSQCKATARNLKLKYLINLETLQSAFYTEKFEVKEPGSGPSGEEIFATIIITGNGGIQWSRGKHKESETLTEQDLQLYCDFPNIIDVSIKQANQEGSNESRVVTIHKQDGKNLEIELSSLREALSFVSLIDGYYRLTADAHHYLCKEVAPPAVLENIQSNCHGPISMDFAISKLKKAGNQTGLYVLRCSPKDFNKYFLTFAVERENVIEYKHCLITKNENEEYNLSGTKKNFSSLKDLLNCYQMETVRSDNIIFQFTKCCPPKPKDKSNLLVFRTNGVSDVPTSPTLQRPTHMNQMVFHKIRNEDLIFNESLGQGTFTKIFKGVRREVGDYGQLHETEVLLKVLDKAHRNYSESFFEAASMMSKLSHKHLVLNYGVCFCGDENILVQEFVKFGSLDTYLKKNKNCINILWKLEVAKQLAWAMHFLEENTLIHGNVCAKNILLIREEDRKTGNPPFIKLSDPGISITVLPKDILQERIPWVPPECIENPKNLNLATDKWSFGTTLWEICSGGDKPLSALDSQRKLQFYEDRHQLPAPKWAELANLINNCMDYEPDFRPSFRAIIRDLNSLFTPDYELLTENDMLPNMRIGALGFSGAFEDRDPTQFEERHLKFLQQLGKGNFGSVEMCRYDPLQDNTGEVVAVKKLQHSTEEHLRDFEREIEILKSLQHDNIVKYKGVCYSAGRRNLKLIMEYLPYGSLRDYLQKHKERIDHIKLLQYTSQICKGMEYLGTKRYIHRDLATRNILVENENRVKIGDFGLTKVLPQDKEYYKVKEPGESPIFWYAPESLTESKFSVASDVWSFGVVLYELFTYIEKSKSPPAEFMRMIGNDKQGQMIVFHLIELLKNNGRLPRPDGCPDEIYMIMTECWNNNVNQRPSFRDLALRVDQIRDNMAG
Description: as §1, §2, §3, §4, §5

[4] = target: T4, JAK1 (Homo sapiens, UniProt P23458); test: JAK1 microfluidic kinase assay (Caliper EZ Reader II, FAM labeled peptide substrate); settings: (5 nM), 1 mM ATP
T4 construct: purchased Carna Biosciences
T4 sequence (P23458 whole entry): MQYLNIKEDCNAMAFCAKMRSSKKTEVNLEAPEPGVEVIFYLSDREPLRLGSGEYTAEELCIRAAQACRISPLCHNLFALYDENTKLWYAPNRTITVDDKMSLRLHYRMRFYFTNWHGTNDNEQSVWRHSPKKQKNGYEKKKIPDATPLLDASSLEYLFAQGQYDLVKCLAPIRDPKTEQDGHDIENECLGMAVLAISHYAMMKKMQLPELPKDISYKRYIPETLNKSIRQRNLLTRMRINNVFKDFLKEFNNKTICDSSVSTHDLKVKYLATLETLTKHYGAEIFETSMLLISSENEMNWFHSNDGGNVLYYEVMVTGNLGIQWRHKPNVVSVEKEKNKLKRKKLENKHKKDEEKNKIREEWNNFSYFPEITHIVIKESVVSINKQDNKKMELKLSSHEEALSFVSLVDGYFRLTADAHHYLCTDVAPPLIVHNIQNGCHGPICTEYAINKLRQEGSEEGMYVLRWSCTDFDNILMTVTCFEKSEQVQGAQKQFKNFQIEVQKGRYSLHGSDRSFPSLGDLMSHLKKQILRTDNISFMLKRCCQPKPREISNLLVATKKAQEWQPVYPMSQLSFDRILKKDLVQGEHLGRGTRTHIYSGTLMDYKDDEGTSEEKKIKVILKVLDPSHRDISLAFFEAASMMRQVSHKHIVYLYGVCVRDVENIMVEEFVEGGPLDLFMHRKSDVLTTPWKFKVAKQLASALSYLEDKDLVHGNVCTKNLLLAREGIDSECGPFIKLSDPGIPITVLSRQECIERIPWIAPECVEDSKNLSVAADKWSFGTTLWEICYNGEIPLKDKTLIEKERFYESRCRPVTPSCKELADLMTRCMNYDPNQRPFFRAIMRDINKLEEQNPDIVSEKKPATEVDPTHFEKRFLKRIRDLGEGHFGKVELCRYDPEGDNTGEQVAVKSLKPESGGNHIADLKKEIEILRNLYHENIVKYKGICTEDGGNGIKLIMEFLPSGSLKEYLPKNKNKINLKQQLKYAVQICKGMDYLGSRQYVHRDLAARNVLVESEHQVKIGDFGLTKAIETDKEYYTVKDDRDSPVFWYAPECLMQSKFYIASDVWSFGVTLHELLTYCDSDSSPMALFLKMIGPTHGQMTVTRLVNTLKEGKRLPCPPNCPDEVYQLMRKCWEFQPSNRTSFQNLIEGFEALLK
Description: as §1, §2, §3, §4, §5

[5] = Table 2, read-out: IC50 JAK2 (0.25 nM) (1 mM ATP)
[6] = Table 2, read-out: IC50 J2V617F (2.5 nM) (1 mM ATP)
[7] = Table 2, read-out: IC50 JAK1 (5 nM) (1 mM ATP)

T1 sequence (O60674 whole entry): as the sequence (O60674 whole entry V617F) above, with F617V counted along it

Row | Compound | IC50 [1, 5] [nM] | IC50 [2] [nM] | IC50 [3, 6] [nM] | IC50 [4, 7] [nM] | IC50 ([1]; Table 3B, literature compounds, read-out: JAK2 (0.25 nM) (1 mM ATP)) [nM] | IC50 ([3]; Table 3B, literature compounds, read-out: J2V617F (2.5 nM) (1 mM ATP)) [nM] | IC50 ([4]; Table 3B, literature compounds, read-out: JAK1 (5 nM) (1 mM ATP)) [nM]
1 | Cc1cnc(Nc2cnn(C3CC3)c2)nc1-c1ccc(OCC(C)(C)C#N)cc1 [Example 1, 3-(4-(2-((1-cyclopropyl-1H-pyrazol-4-yl)amino)-5-methylpyrimidin-4-yl)phenoxy)-2,2-dimethylpropanenitrile] | 0.27 | 12 | 3.18 | 4.8 | – | – | –
2 | Cc1cnc(Nc2cnn(C3CC3)c2)nc1-c1ccc(OCC2(C#N)CCC2)cc1 [Example 3, 1-((4-(2-((1-cyclopropyl-1H-pyrazol-4-yl)amino)-5-methylpyrimidin-4-yl)phenoxy)methyl)cyclobutane-carbonitrile] | – | 21.9 | 28.1 | 8.86 | – | – | –
3 | Cc1cnc(Nc2cnn(C3CC3)c2)nc1-c1ccc(OCC(C)(C)C#N)c(F)c1 [Example 4, 3-(4-(2-((1-cyclopropyl-1H-pyrazol-4-yl)amino)-5-methylpyrimidin-4-yl)-2-fluorophenoxy)-2,2-dimethylpropanenitrile] | 0.425 | < 1.25 | < 1.25 | < 2.5 | – | – | –
4 | Cc1cnc(Nc2cnn(C3CC3)c2)nc1-c1ccc(OCC2(C#N)CC2)c(F)c1 [Example 5, 1-((4-(2-((1-cyclopropyl-1H-pyrazol-4-yl)amino)-5-methylpyrimidin-4-yl)-2-fluorophenoxy)methyl)cyclopropane-carbonitrile] | – | 3.26 | < 1.25 | 3.32 | – | – | –
5 | Cc1cnc(Nc2cnn(C3CCOCC3)c2)nc1-c1ccc(OCC2(C#N)CC2)c(F)c1 [Example 6, 1-((2-fluoro-4-(5-methyl-2-((1-(tetrahydro-2H-pyran-4-yl)-1H-pyrazol-4-yl)amino)pyrimidin-4-yl)phenoxy)methyl)cyclopropane-carbonitrile] | – | < 1.25 | < 1.25 | 7.42 | – | – | –
6 | Cc1cnc(Nc2cnn(C3CCOCC3)c2)nc1-c1ccc(OCC(C)(C)C#N)c(F)c1 [Example 7, 3-(2-fluoro-4-(5-methyl-2-((1-(tetrahydro-2H-pyran-4-yl)-1H-pyrazol-4-yl)amino)pyrimidin-4-yl)phenoxy)-2,2-dimethylpropanenitrile] | – | < 1.25 | < 1.25 | < 2.5 | – | – | –
7 | Cc1cnc(Nc2cnn(C3CC3)c2)nc1-c1ccc(OCC2(C#N)CC2)nc1 [Example 11, 1-(((5-(2-((l-cyclopropyl-1H-pyrazol-4-yl)amino)-5-methylpyrimidin-4-yl)pyridin-2-yl)oxy)methyl)cyclopropanecarbonitrile] | – | 218 | 138 | 65.1 | – | – | –
8 | Cc1cnc(Nc2cnn(C)c2)nc1-c1ccc(OCCC#N)c(F)c1 [Example 12, 3-(2-fluoro-4-(5-methyl-2-((1-methyl-1H-pyrazol-4-yl)amino)pyrimidin-4-yl)phenoxy)propanenitrile] | 32.3 | 64.7 | – | 19.6 | – | – | –
9 | Cc1cnc(Nc2cnn(C3CCOCC3)c2)nc1-c1ccc(OCC2(C#N)CC2)nc1 [Example 14, 1-(((5-(5-methyl-2-((1-(tetrahydro-2H-pyran-4-yl)-1H-pyrazol-4-yl)amino)pyrimidin-4-yl)pyridin-2-yl)oxy)methyl)cyclopropanecarbonitrile] | – | 351 | 163 | 202 | – | – | –
10 | Cc1cnc(Nc2cnn(C3CCN(C)CC3)c2)nc1-c1ccc(OCC(C)(C)C#N)cc1 [Example 17, 2,2-dimethyl-3-(4-(5-methyl-2-((1-(1-methylpiperidin-4-yl)-1H-pyrazol-4-yl)amino)pyrimidin-4-yl)phenoxy)propanenitrile] | < 0.25 | < 1.25 | < 1.25 | < 2.5 | – | – | –
11 | Cc1cnc(Nc2cnn(C3CCN(C)CC3)c2)nc1-c1ccc(OCC(C)(C)C#N)c(F)c1 [Example 18, 3-(2-fluoro-4-(5-methyl-2-((1-(1-methylpiperidin-4-yl)-1H-pyrazol-4-yl)amino)pyrimidin-4-yl)phenoxy)-2,2-dimethylpropanenitrile] | 0.427 | < 1.25 | – | < 2.5 | – | – | –
12 | Cc1cnc(Nc2cnn(C3CCN(C)CC3)c2)nc1-c1ccc(OCC2(C#N)CC2)c(F)c1 [Example 20, 1-((2-fluoro-4-(5-methyl-2-((1-(1-methylpiperidin-4-yl)-1H-pyrazol-4-yl)amino)pyrimidin-4-yl)phenoxy)methyl)cyclopropane-carbonitrile] | 0.251 | < 1.25 | – | < 2.5 | – | – | –
13 | Cn1cc(Nc2ncc(Cl)c(-c3ccc(OCC(C)(C)C#N)cc3)n2)cn1 [Example 29, 3-(4-(5-chloro-2-((1-methyl-1H-pyrazol-4-yl)amino)pyrimidin-4-yl)phenoxy)-2,2-dimethylpropanenitrile] | 3.4 | 41.4 | – | 14.1 | – | – | –
14 | CC(C)(C#N)COc1ccc(-c2nc(Nc3cnn(C4CC4)c3)ncc2Cl)cc1 [Example 32, 3-(4-(5-chloro-2-((1-cyclopropyl-1H-pyrazol-4-yl)amino)pyrimidin-4-yl)phenoxy)-2,2-dimethylpropanenitrile] | 0.9 | 106 | – | 28.9 | – | – | –
15 | Cc1cnc(Nc2cnn(C3CC3)c2)nc1-c1ccc(NCC(C)(C)C#N)c(F)c1 [Example 37, 3-((4-(2-((1-cyclopropyl-1H-pyrazol-4-yl)amino)-5-methylpyrimidin-4-yl)-2-fluorophenyl)amino)-2,2-dimethylpropanenitrile] | 0.741 | < 1.25 | – | 14.5 | – | – | –
16 | Cc1cnc(Nc2cnn(C)c2)nc1-c1ccc(OCC(C)(C)C#N)cc1 [Example 38, 2,2-dimethyl-3-(4-(5-methyl-2-((1-methyl-1H-pyrazol-4-yl)amino)pyrimidin-4-yl)phenoxy)propanenitrile] | 1.09 | 2.62 | – | 7.49 | – | – | –
17 | Cc1cnc(Nc2cnn(C3CCNCC3)c2)nc1-c1ccc(OCC(C)(C)C#N)c(F)c1 [Example 39, 3-(2-fluoro-4-(5-methyl-2-((1-(piperidin-4-yl)-1H-pyrazol-4-yl)amino)pyrimidin-4-yl)phenoxy)-2,2-dimethylpropanenitrile] | 0.377 | < 1.25 | – | < 2.5 | – | – | –
18 | Cc1cnc(Nc2cnn(C(C)C(F)(F)F)c2)nc1-c1ccc(OCC(C)(C)C#N)c(F)c1 (stereo not drawn) [Example 40, 3-(2-fluoro-4-(5-methyl-2-((1-(1,1,1-trifluoropropan-2-yl)-1H-pyrazol-4-yl)amino)pyrimidin-4-yl)phenoxy)-2,2-dimethylpropanenitrile] | 0.654 | 1.78 | – | < 2.5 | – | – | –
19 | Cc1cnc(Nc2cnn(C)c2)nc1-c1ccc(OCCC#N)cc1 [Example 41, 3-(4-(5-methyl-2-((1-methyl-1H-pyrazol-4-yl)amino)pyrimidin-4-yl)phenoxy)propanenitrile] | 32.3 | 64.7 | – | 19.6 | – | – | –
20 | Cc1cnc(Nc2cnn(C3CC3)c2)nc1-c1ccc(NCC2(C#N)CC2)cc1 [Example 42, 1-(((4-(2-((1-cyclopropyl-1H-pyrazol-4-yl)amino)-5-methylpyrimidin-4-yl)phenyl)amino)methyl)cyclopropane carbonitrile] | 27.4 | 102 | – | 19.2 | – | – | –
21 | Cc1cnc(Nc2cnn(C3CCN(C)CC3)c2)nc1-c1ccc(NCC2(C#N)CC2)cc1 [Example 43, 1-(((4-(5-methyl-2-((1-(1-methylpiperidin-4-yl)-1H-pyrazol-4-yl)amino)pyrimidin-4-yl)phenyl)amino)methyl)cyclopropane carbonitrile] | 3.12 | 98.4 | – | 26.8 | – | – | –
22 | N#CC1(CNc2ccc(-c3nc(Nc4cnn(C5CCNCC5)c4)ncc3Cl)cc2)CC1 [Example 44, 1-(((4-(5-chloro-2-((1-(piperidin-4-yl)-1H-pyrazol-4-yl)amino)pyrimidin-4-yl)phenyl)amino)methyl)cyclopropane carbonitrile] | 1.46 | 173 | – | 35.3 | – | – | –
23 | CCCOc1ccc(-c2nc(Nc3cnn(C)c3)ncc2C)cc1F [Example 48, 4-(3-fluoro-4-propoxyphenyl)-5-methyl-N-(1-methyl-1H-pyrazol-4-yl)pyrimidin-2-amine, reference compound] | – | – | – | – | 39.6 | 60 | 25.7

From patent US12024503B2, “Benzethers and anilines of pyrazolyl-amino-pyrimidinyl derivatives, and compositions and methods thereof” (LYNK PHARMACEUTICALS CO. LTD., priority 2019, dated 2024)
